Experimental data: ChEMBL document CHEMBL1148156, “Chemical constituents of Millettia taiwaniana: structure elucidation of five new isoflavonoids and their cancer chemopreventive activity” (2004)

Key:
Assay type in all cases: functional
Mus musculus [1] = assay: Inhibition of DMBA-induced/TPA-promoted carcinogenesis in ICR mouse assessed as number of skin papillomas per mouse at 85 nmol administered 1 hr before TPA treatment measured after 14 weeks
Mus musculus [2] = assay: Inhibition of DMBA-induced/TPA-promoted carcinogenesis in ICR mouse assessed as mouse bearing papillomas at 85 nmol administered 1 hr before TPA treatment measured after 10 weeks; parameters: scale not given: the % may be the effect or the level left
Mus musculus [3] = assay: Inhibition of DMBA-induced/TPA-promoted carcinogenesis in ICR mouse assessed as mouse bearing papillomas at 85 nmol administered 1 hr before TPA treatment measured after 20 weeks; parameters: scale not given: the % may be the effect or the level left
Mus musculus [4] = assay: Inhibition of DMBA-induced/TPA-promoted carcinogenesis in ICR mouse assessed as number of skin papillomas per mouse at 85 nmol administered 1 hr before TPA treatment measured after 20 weeks
Mus musculus [5] = assay: Inhibition of DMBA-induced/TPA-promoted carcinogenesis in ICR mouse assessed as mouse bearing papillomas at 85 nmol administered 1 hr before TPA treatment measured after 8 weeks; parameters: scale not given: the % may be the effect or the level left

Which Activity (Mus musculus [1]) does the source give for CC(C)=CCc1c2c(c(O)c3c(=O)c(-c4ccc(O)c(O)c4)coc13)C=CC(C)(C)O2 [AURICULASIN] here?
Its Activity is <3.

What about the Activity (Mus musculus [2]) of the same compound?
The Activity was 27%.

What about the Activity (Mus musculus [3]) of the same compound?
The Activity was 87%.

What about the Activity (Mus musculus [4]) of the same compound?
Its Activity is 4.9.

And the Activity (Mus musculus [5])?
The Activity was 13%.
